Measurements from patent US11154572B2, “Methods of treatment with natural killer cells matched for killer immunoglobulin receptor type” (Board of Regents, The University of Texas System, priority 2015, dated 2021).

Tests used:
iC9/CAR19/IL15+ NK cells = assay: Inducible caspase-9 suicide gene test, annexin-V-7AAD staining; format: cell-based, human; conditions: after 4 hours
Source text: (C) CAR-NK cells home to sites of disease, such as the spleen, bone marrow, and liver, in a Raji engrafted mouse at Day 16 post-infusion. (D) CAR-NK cells persist in Raji engrafted mice at Day 70 post infusion. (E) CAR-transduced CB-NK cells show an anti-tumor effect in vivo in Raji-FFLuc mice from Day 0 to Day 14. (F) CAR-transduced CB-NK cells show an anti-tumor effect in vivo in Raji-FFLuc mice from Day 21 to Day 35. […] (H) Survival curve with different NK cell treatments. (I) CAR.19.IL15-iCasp9 transduced CB-NK cells are eliminated after activation of the suicide gene by exposure to the small molecule AP1903 after 4 hours.
Because of concerns over autonomous, uncontrolled NK-cell growth due to autocrine production of IL-15, a suicide gene based on the inducible caspase-9 (IC9) gene was incorporated into the construct. To test the inducible caspase-9 suicide gene that was incorporated into the retroviral vector, 10 nM of CID AP20187 was added to cultures of iC9/CAR19/IL15+ NK cells. The AP20187 induced apoptosis/necrosis of transgenic cells within 4 hours as assessed by annexin-V-7AAD staining (FIG. 2I).

[1] = system: primary CD19+ tumor cells; assay: Cytotoxicity (percent lysis) against tumor cells; format: cell-based, human; conditions: combination with CAR-transduced NK cells
Source text: FIGS. 1A-1I: (A) CB NK cells were stably transduced with SFG.iCASP9.2A.CAR.CD19-28z.2A.[…]. Cell analysis for CD56 and CAR are shown from Day 10 to Day 44. (B) Histograms show NK receptor expression on ex vivo-expanded cord blood versus peripheral blood NK cells. NK receptors include KIR2DL2/DL3, KIR2DL1, NGK2A, NKP30, NKP44, and NKP46. (C) aAPC-expanded NK cells maintain an Eomes^hi and T-bet^hi phenotype. […] (G) NK cells co-expressing CAR.19-IL-15-iCasp9 form functional synapses with CD19^+ CLL cells. Cells are stained for Perforin, Phalloidin, and CAR and imaged by confocal microscopy. (H) CAR.19-IL-15-iCasp9 transduced CB-NK cells are more efficient at killing primary CD19^+ tumor cells. Percent lysis of tumor cells is shown at varying effector:target ratios of K562, Raji, and CLL cells. (I) The activity of cord blood-derived NK cells against primary CLL cells is enhanced with lenalidomide (Revlimid).
The immunological synapse in immune cells is a discrete structural entity that forms after the ligation of a specific activation receptor and enables the cell to progress through a series of biological steps that allow it to destroy cancer cells through the elaboration of the contents of NK cells lytic granules. To determine if the CAR-transduced NK cells formed immunological synapses with CD19^+ targets, the cells were stained with antiperforin, Phalloidin-F-actin and anti-CD19-CAR.

Compound | elimination of CAR.19.IL15-iCasp9 transduced CB-NK cells after activation of the suicide gene (iC9/CAR19/IL15+ NK cells) | activity of CAR-transduced NK cells against patient-derived CLL cells on addition of lenalidomide [1]
CC[C@H](C(=O)N1CCCC[C@H]1C(=O)O[C@H](CCc1ccc(OC)c(OC)c1)c1cccc(OCC(=O)NCCNC(=O)COc2cccc([C@@H](CCc3ccc(OC)c(OC)c3)OC(=O)[C@@H]3CCCCN3C(=O)[C@@H](CC)c3cc(OC)c(OC)c(OC)c3)c2)c1)c1cc(OC)c(OC)c(OC)c1 [AP1903] | eliminated | 
Nc1cccc2c1CN(C1CCC(=O)NC1=O)C2=O (centres unmarked) [lenalidomide] |  | enhanced synergistically
